This passage reports IC50 results from ChEMBL document CHEMBL1153650, “Imidazole and triazole substituted ether phospholipids: potent antitumor agents” (Bioorg Med Chem Lett, 1997).

Common to all, as to type: functional, cell-based
One assay relates to MDA-MB-231. Kind of assay: In vitro inhibition of estrogen receptor negative MDA-MB-231 human breast cancer cell proliferation.
The next assay relates to MCF7. In words: In vitro inhibition of estrogen receptor positive MCF-7 human breast cancer cell proliferation.
The test system of the next assay is HL-60. Kind of assay: In vitro inhibition of HL-60 human promyelocytic leukemia cell proliferation.
The subject of the next assay is FHC. In words: In vitro inhibition of FHC normal human colon cell proliferation.
The next assay relates to HT-29. In words: In vitro inhibition of the HT-29 transformed human colon cell proliferation.

By IC50 is commonly meant the concentration that gives 50% inhibition. A high value points to a need for much substance. On to `CCCCCCCCCCCCCCCCCCOCC(CCP(=O)([O-])OCC[N+](C)(C)C)n1cncn1` (configuration not stated), for which the concentration for half-maximal inhibition (IC50) in the assay on MDA-MB-231 was 6000 nM; in the assay with MCF7 it was 3000 nM; in the assay on HL-60, 3000 nM.

As for `CCCCCCCCCCCCCCCCCCOCC(COP(=O)([O-])OCC[N+](C)(C)C)OC` (configuration not stated) [EDELFOSINE], the half-inhibitory concentration (IC50) with FHC was found to be 45000 nM; in the assay on HT-29, 2000 nM; in the assay on MDA-MB-231, 5000 nM; in the assay with HL-60, 2000 nM.

Regarding `CCCCCCCCCCCCCCCCCCOCC(CCP(=O)([O-])OCC[N+](C)(C)C)n1ccnc1` (configuration not stated), the IC50 with FHC is 5000 nM; in the assay on HT-29, 2000 nM; with MDA-MB-231 it was 4500 nM; with MCF7, 3000 nM; with HL-60, 2000 nM.
